Source: BindingDB's records for doi:10.1016/j.bmcl.2004.06.018 (Darmstadt Technical University, 2004)

Target: Proto-oncogene tyrosine-protein kinase Src (Homo sapiens, UniProt P12931)
Assay: Inhibition of fluorescent (GpYEEI) binding to Src protein tyrosine kinase SH2 domain

Sequence of Proto-oncogene tyrosine-protein kinase Src (P12931 2-536 limits assumed): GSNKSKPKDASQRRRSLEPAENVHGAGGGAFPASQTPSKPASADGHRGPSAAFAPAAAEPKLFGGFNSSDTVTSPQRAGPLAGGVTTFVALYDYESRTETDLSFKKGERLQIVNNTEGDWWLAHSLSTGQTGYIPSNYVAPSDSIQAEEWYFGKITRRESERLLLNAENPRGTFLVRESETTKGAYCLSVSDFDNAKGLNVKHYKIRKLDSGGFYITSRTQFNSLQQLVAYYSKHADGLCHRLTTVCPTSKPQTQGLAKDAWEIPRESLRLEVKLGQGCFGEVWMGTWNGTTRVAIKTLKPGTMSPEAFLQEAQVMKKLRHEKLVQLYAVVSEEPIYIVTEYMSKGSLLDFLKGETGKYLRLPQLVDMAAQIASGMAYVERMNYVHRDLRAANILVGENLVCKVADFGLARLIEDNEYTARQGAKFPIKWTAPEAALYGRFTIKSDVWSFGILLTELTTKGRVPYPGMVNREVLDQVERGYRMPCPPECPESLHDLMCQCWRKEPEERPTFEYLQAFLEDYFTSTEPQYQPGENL

IC50	Structure (SMILES)
20 µM	COc1cccc(CNC(=O)[C@@H](NC(=O)COc2cc3[n+]4c(c2)C(=O)[O][Cu]4([OH])[O]C3=O)c2ccccc2)c1 [Copper complex]
17 µM	COc1cccc(CNC(=O)[C@H](Cc2ccccc2)NC(=O)COc2cc3[n+]4c(c2)C(=O)[O][Cu]4([OH])[O]C3=O)c1 [Copper complex]
